We go through 2 compounds from PubChem BioAssay (NCI).

Some test systems named below: DLD-1 colon; DMS 273 small cell lung; RXF-631 renal; HOP-18 NSCLC; SNB-78 CNS; XF 498 CNS; DMS 114 small cell lung; SN12K1 renal; MDA-N; BT-549 breast; P388 leukemia.
Experiment in all cases: NCI tumour cell line growth inhibition, 48 h

Several values for one entry are separate records, joined by “and”; a condition that tells them apart may be missing. Equal values may be shown once.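 Cells were grown in 96-well plates and exposed to each compound for 48 hours at five concentrations; endpoints were interpolated linearly between bracketing concentrations, or set to the highest concentration if not reached. GI50 = concentration required for 50% inhibition of growth. At the TGI there is no net growth.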

On to `O=C1c2ccccc2C(=O)N1/N=C\c1ccc(Br)cc1`, for which the GI50 in the experiment with DLD-1 colon, in the experiment with DMS 273 small cell lung, in the experiment with RXF-631 renal, with SNB-78 CNS, with XF 498 CNS and with DMS 114 small cell lung was > 100 µM in each case. For the same compound, the TGI in the experiment with DLD-1 colon was > 100 µM; in the experiment with DMS 273 small cell lung, > 100 µM; in the experiment with RXF-631 renal, > 100 µM; with HOP-18 NSCLC, > 10 µM; with SNB-78 CNS, > 100 µM; in the experiment on XF 498 CNS, > 100 µM. Further, the TGI in the experiment on DMS 114 small cell lung was > 100 µM.
`C=C(C)C(=O)NC(N)=NC#N`: the GI50 is 111 µM with DLD-1 colon; 130 µM in the experiment with DMS 273 small cell lung; 115 µM with HOP-18 NSCLC; 96.8 µM with MDA-N; 167 µM in the experiment on SNB-78 CNS; 126 µM in the experiment with XF 498 CNS. Also, the GI50 with BT-549 breast was 67.9 µM. Besides, the TGI with DLD-1 colon was 261 µM; in the experiment on DMS 273 small cell lung, 270 µM; in the experiment with HOP-18 NSCLC, > 57.4 µM and 240 µM; in the experiment on SN12K1 renal, > 56.4 µM; in the experiment with MDA-N, 216 µM; with SNB-78 CNS it was 398 µM. For the same compound, the TGI is > 96.6 µM and 303 µM in the experiment on XF 498 CNS; 28.4 µM and 192 µM in the experiment with BT-549 breast; > 82.7 µM and 136 µM in the experiment on DMS 114 small cell lung; 13.9 µM in the experiment with P388 leukemia.
